Laboratory results from US20220143003A1, “COMPOSITIONS AND METHODS TO TREAT NON-ALCOHOLIC FATTY LIVER DISEASES (NAFLD)” (Coherus Biosciences, Inc., priority 2018, published 2022).

How the values were obtained:
Type in all cases: in vivo, male C57BL/6JRj mice
DIO-NASH mice [1] = assay: EchoMRI body composition (MRI body weight, fat, lean and free water mass); conditions: for Absolute fat tissue mass at week 11 / Absolute free water mass at week 11 / MRI body weight at week 11 / Relative fat tissue mass at week 11 / Relative lean tissue mass at week 11 / Relative free water mass (% of body weight): group mean, week 11
Description: The body composition of the mice was assessed by an EchoMRI 3-1 Body composition analyzer (EchoMRI, US). Non-anaesthetised mice was placed in a plastic tube inside the MRI scanner for approximately 80 seconds. The body composition is expressed as fat mass, fat free mass (lean mass) and water.

DIO-NASH mice [2] = assay: Plasma alanine transaminase (ALT) at termination; conditions: for Plasma alanine transaminase (ALT) at termination: group mean
Description: (§1) For plasma biochemistry, tail blood was drawn directly through the capillary of a Microvette/Vacuette of the right dimension and anticoagulant and mixed by inversion 5 times. Blood was placed at 4° C. until centrifugation at 3000×g for 10 minutes at 4° C. The plasma supernatants were transferred to new tubes and immediately frozen on dry ice and stored at −80° C. until analysis.
(§2) Mouse insulin was measured in single determinations using the MSD platform (Meso Scale Diagnostics).
Plasma alanine transaminase (ALT) at termination (U/L). Values expressed as mean of n=11-14+SEM.

DIO-NASH mice [3] = assay: Plasma urea at termination; conditions: for Plasma urea at termination: group mean
Description: as §1, §2
Plasma urea at termination (mmol/L). Values expressed as mean of n=12-14+SEM.

DIO-NASH mice [4] = assay: Liver total cholesterol (TC) at termination; conditions: group mean
Description: (§3) The liver post-biopsy for histological analyses was removed by dissection from the left lateral lobe, fixated in 4% formalin for 20-24 h, and subsequently embedded in paraffin. Liver biopsies for liver triglycerides and total cholesterol were dissected from the medial lobe, snap frozen in liquid nitrogen, and stored at −80° C., while liver biopsies for hydroxyproline were dissected from the caudal lobe (the entire lobe), snap frozen in liquid nitrogen and stored at −80° C. Finally, a liver sample for RNA isolation and gene expression analysis was dissected from the left lateral lobe, snap frozen in liquid nitrogen, and stored at −80° C. until processing.
For liver TG and TC quantification, samples were homogenized, and TG and TC extracted in 5% NP-40 by heating twice to 90° C. The samples were centrifuged, and the TG and TC content measured in the supernatant, using commercial kits (Roche Diagnostics) on the Cobas c501 autoanalyzer according to the manufacturer's instructions.
Relative (mg/g of liver) liver total cholesterol (TC) at termination. Values expressed as mean of n=12-14+SEM.
Total (mg/liver) liver total cholesterol (TC) at termination. Values expressed as mean of […]+SEM.

DIO-NASH mice [5] = assay: Liver hydroxyproline (HP) at termination, colorimetric assay; conditions: for Relative liver hydroxyproline (HP) at termination / Total liver hydroxyproline (HP) at termination: group mean
Description: as §3
For liver hydroxyproline (HP; a protein marker of fibrosis) quantification, liver samples were homogenized in 6 M HCl and hydrolyzed to degrade collagen. The samples were centrifuged, and the hydroxyproline content measured in duplicates in the supernatant, using a colorimetric assay (Quickzyme Biosciences) according to the manufacturer's instructions.
Relative liver hydroxyproline (HP) (μg/mg of liver) at termination. Values expressed as mean of n=12-14+SEM.
Total liver hydroxyproline (HP) (μg/liver) at termination. Values expressed as mean of n=12-14+SEM.

DIO-NASH mice [6] = assay: Liver Collagen 1A1 (Col1a1) IHC quantified by morphometry; conditions: for Relative terminal liver Col1a1 by morphometry / Total terminal Col1a1 (% fractional area multiplied with liver weight): group mean
Description: After surgery, the animals were evaluated daily on general health and body weight. […] The pre-biopsy was analyzed to evaluate liver steatosis score and fibrosis stage for study inclusion as outlined by Kleiner et al. (2005) (Table 1). In addition, liver Collagen 1a1 (Col1a1) quantified by morphometry was used to perform a stratified randomization of NASH-affected animals into study groups (see description of histopathological stains and analyses below).
(§4) Protein markers of fibrosis (Col1a1), fibrogenesis (α-SMA) and inflammation (Gal-3) were assessed by immunohistochemistry. α-SMA and collagen type I increase in regulation of quiescent hepatic stellate cell activation into myofibroblast-like cells where activated hepatic stellate cells are the main collagen producing cells in the liver (Carpino et al 2005, Hou and Syn 2018) whereas Gal-3 is involved in mediating inflammatory response and considered as a macrophage activation marker (Sciacchitano et al, 2018). For morphometric quantification of liver Col1a1 (using antibody from Southern Biotech, Cat. #1310-01), alpha-smooth muscle actin (α-SMA; using antibody from Abcam, Cat. #Ab124964) and Galectin-3 (using antibody from Biolegend, Cat. #125402), IHC staining was performed using standard procedures. Briefly, after antigen retrieval and blocking of endogenous peroxidase activity, slides were incubated with primary antibody. For all IHC stains, the primary antibody was detected using a polymeric HRP-linker antibody conjugate and visualized using DAB as chromogen. Finally, sections were counterstained in hematoxylin and cover-slipped before scanning.
(§5) Quantitative assessment of immunoreactivity is evaluated as follows. IHC-positive staining is quantified by image analysis using the Visiomorph software (Visiopharm, Denmark). Visiomorph protocols are designed to analyze the virtual slides in two steps: 1. Crude detection of tissue at low magnification (1× objective). The liver capsule is excluded. 2. Detection of IHC-positive staining (e.g. green; collagen 1 IHC), tissue (e.g. red) and fat (e.g. pink) at high magnification (10×objective). The quantitative estimate of IHC-positive staining is calculated as an area fraction (AF) according to the following formula:
Liver fibrosis (Col1a1%) at baseline. Values expressed as mean of n=12-14+SEM.
Terminal liver Collagen 1A1 (Col1a1) was quantified by morphometry. Relative Terminal liver Col1a1 (% fractional area) is expressed as mean of n=12-14+SEM.
Total terminal Col1a1 values are in milligrams (% fractional area multiplied with liver weight) and expressed as mean of n=12-14+SEM.

DIO-NASH mice [7] = assay: Liver Galectin-3 IHC quantified by morphometry; conditions: at termination, mean of n=12-14; for Total terminal liver Galectin-3 (Average): % fractional area multiplied with liver weight; for Relative terminal liver Galectin-3 (Average): morphometry
Description: as §4, §5
Terminal liver Galectin-3 was quantified by morphometry. Relative terminal liver Galectin-3 (% fractional area) is expressed as mean of n=12-14+SEM.
Total terminal Galectin-3 values are in milligrams (% fractional area multiplied with liver weight) and expressed as mean of n=12-14+SEM.

[8] = DIO-NASH mice, compared to DIO mice administered vehicle only
[9] = DIO-NASH mice, CHS-131 High 30 mg/kg, empagliflozin 10 mg/kg, elafibranor 30 mg/kg PO, liraglutide 0.4 mg/kg SC, QD
[10] = DIO-NASH mice, CHS-131 Low 10 mg/kg PO QD
[11] = CHS-131 High dose (alone or combined)
[12] = DIO-NASH mice, 12 weeks of treatment, summary of data

With `O=S(=O)(Nc1cc(Cl)c(Oc2cnc3ccccc3c2)c(Cl)c1)c1ccc(Cl)cc1Cl` [CHS-131] the “Fat tissue mass (fat mass), effect in words” value (DIO-NASH mice [1]; [8]) was “reduced significantly”, the “Free water mass, effect in words” value (DIO-NASH mice [1]; [8]) was “remained stable” and the “Relative fat tissue mass, effect in words” value (DIO-NASH mice [1]; [8]) was “reduced”. The “Reduction of % fat mass as % of baseline body weight” value (DIO-NASH mice [1]; DIO-NASH mice, compared to vehicle alone, CHS-131 dose not stated) was 20%, the “Absolute fat tissue mass at week 11” value (DIO-NASH mice [1]; [9]) was 6.9 g and the “Absolute free water mass at week 11” value (DIO-NASH mice [1]; [9]) was 0.0946 g. For the same molecule, the “MRI body weight at week 11” value (DIO-NASH mice [1]; [9]) was 38.2 g, the “Relative fat tissue mass at week 11” value (DIO-NASH mice [1]; [9]) was 17.8 % of body weight and the “Relative lean tissue mass at week 11” value (DIO-NASH mice [1]; [9]) was 48.1 % of body weight. For the same molecule, the “Absolute fat tissue mass at week 11” value (DIO-NASH mice [1]; [10]) was 7.07 g, the “Absolute free water mass at week 11” value (DIO-NASH mice [1]; [10]) was 0.165 g and the “MRI body weight at week 11” value (DIO-NASH mice [1]; [10]) was 38.3 g. For the same molecule, the “Relative fat tissue mass at week 11” value (DIO-NASH mice [1]; [10]) was 18.4 % of body weight, the “Relative lean tissue mass at week 11” value (DIO-NASH mice [1]; [10]) was 48.5 % of body weight and the “Relative free water mass (% of body weight)” value (DIO-NASH mice [1]; [11]) was 0.249 % of body weight. The “Relative free water mass (% of body weight)” value (DIO-NASH mice [1]; CHS-131 Low dose) was 0.429 % of body weight, the “Plasma ALT, effect in words” value (DIO-NASH mice [2]; [12]) was “reduced” and the “Decrease of plasma alanine aminotransferase (ALT)” value (DIO-NASH mice [2]; DIO-NASH mice, compared to DIO mice administered vehicle only (placebo)) was 30%. For the same molecule, the “Plasma alanine transaminase (ALT) at termination” value (from here on “Plasma alanine transaminase (ALT)”) (DIO-NASH mice [2]; [11]) was 140 U/L, the “Plasma alanine transaminase (ALT)” value (DIO-NASH mice [2]; CHS-131 Low dose) was 163 U/L and the “Hemodilution, assessed by urea, effect in words” value (DIO-NASH mice [3]; [8]) was “No difference”. For the same molecule, the “Plasma urea at termination” value (DIO-NASH mice [3]; [11]) was 7.12 mmol/L, the “Plasma urea at termination” value (DIO-NASH mice [3]; CHS-131 Low dose) was 7.4 mmol/L and the “Relative liver total cholesterol (TC) at termination” value (“Relative liver total cholesterol” below) (DIO-NASH mice [4]; [11]) was 12.3 mg/g of liver. The “Total liver total cholesterol (TC) at termination” value (“Total liver total cholesterol (TC)” below) (DIO-NASH mice [4]; [11]) was 39.2 mg/liver, the “Relative liver total cholesterol” value (DIO-NASH mice [4]; CHS-131 Low dose) was 12.4 mg/g of liver and the “Total liver total cholesterol (TC)” value (DIO-NASH mice [4]; CHS-131 Low dose) was 39.6 mg/liver. For the same molecule, the “Marker of fibrosis hydroxyproline, effect in words” value (DIO-NASH mice [5]; [12]) was “positive trends for improvement”, the “Improvement of liver hydroxyproline level at termination (marker of fibrosis)” value (DIO-NASH mice [5]; DIO-NASH mice, compared to DIO mice administered vehicle only, significant) was 30% and the “Relative liver hydroxyproline (HP) at termination” value (“Relative liver hydroxyproline (HP)” below) (DIO-NASH mice [5]; [11]) was 0.0802 μg/mg of liver. The “Total liver hydroxyproline (HP) at termination” value (“Total liver hydroxyproline (HP)” below) (DIO-NASH mice [5]; [11]) was 250 μg/liver, the “Relative liver hydroxyproline (HP)” value (DIO-NASH mice [5]; CHS-131 Low dose) was 0.0631 μg/mg of liver and the “Total liver hydroxyproline (HP)” value (DIO-NASH mice [5]; CHS-131 Low dose) was 205 μg/liver. The “Decrease of terminal Collagen 1a1 (marker of fibrosis)” value (DIO-NASH mice [6]; DIO-NASH mice, compared to vehicle alone, trend) was 15%, the “Relative terminal liver Col1a1 by morphometry” value (“Relative terminal liver Col1a1” for short) (DIO-NASH mice [6]; [11]) was 6.77 % fractional area and the “Total terminal Col1a1 (% fractional area multiplied with liver weight)” value (DIO-NASH mice [6]; [11]) was 220 milligrams. The “Relative terminal liver Col1a1” value (DIO-NASH mice [6]; CHS-131 Low dose) was 6.64 % fractional area, the “Total terminal Col1a1 (% fractional area multiplied with liver weight)” value (DIO-NASH mice [6]; CHS-131 Low dose) was 213 milligrams and the “Total terminal liver Galectin-3 (Average)” value (DIO-NASH mice [7]; CHS-131 High dose + Vehicle) was 90.6 milligrams. The “Relative terminal liver Galectin-3 (Average)” value (DIO-NASH mice [7]; CHS-131 High dose + Vehicle) was 2.79 % fractional area, the “Total terminal liver Galectin-3 (Average)” value (DIO-NASH mice [7]; CHS-131 Low dose + Vehicle) was 93.8 milligrams and the “Relative terminal liver Galectin-3 (Average)” value (DIO-NASH mice [7]; CHS-131 Low dose + Vehicle) was 2.95 % fractional area.

In the case of `OC[C@H]1O[C@@H](c2ccc(Cl)c(Cc3ccc(O[C@H]4CCOC4)cc3)c2)[C@H](O)[C@@H](O)[C@@H]1O` [Empagliflozin, reference compound], the “Absolute fat tissue mass at week 11” value (DIO-NASH mice [1]; [9]) was 7.81 g, the “Absolute free water mass at week 11” value (DIO-NASH mice [1]; [9]) was 0.182 g and the “MRI body weight at week 11” value (DIO-NASH mice [1]; [9]) was 40.1 g. For the same molecule, the “Relative fat tissue mass at week 11” value (DIO-NASH mice [1]; [9]) was 19.4 % of body weight, the “Relative lean tissue mass at week 11” value (DIO-NASH mice [1]; [9]) was 47.1 % of body weight and the “Relative free water mass (% of body weight)” value (DIO-NASH mice [1]; [11]) was 0.458 % of body weight. The “Plasma alanine transaminase (ALT)” value (DIO-NASH mice [2]; [11]) was 216 U/L, the “Plasma urea at termination” value (DIO-NASH mice [3]; [11]) was 6.77 mmol/L and the “Relative liver total cholesterol” value (DIO-NASH mice [4]; [11]) was 12.6 mg/g of liver. For the same molecule, the “Total liver total cholesterol (TC)” value (DIO-NASH mice [4]; [11]) was 43.2 mg/liver, the “Relative liver hydroxyproline (HP)” value (DIO-NASH mice [5]; [11]) was 0.0747 μg/mg of liver and the “Total liver hydroxyproline (HP)” value (DIO-NASH mice [5]; [11]) was 233 μg/liver. The “Relative terminal liver Col1a1” value (DIO-NASH mice [6]; [11]) was 7.31 % fractional area, the “Total terminal Col1a1 (% fractional area multiplied with liver weight)” value (DIO-NASH mice [6]; [11]) was 250 milligrams and the “Total terminal liver Galectin-3 (Average)” value (DIO-NASH mice [7]) was 99.9 milligrams. The “Relative terminal liver Galectin-3 (Average)” value (DIO-NASH mice [7]) was 2.9 % fractional area.
